Like-named read-outs stand apart in the source and are kept apart here.
Tests used:
[1] = tested on: Aβ40 levels in APOE4-TR mouse brain; assay: Acute PK/PD dose-response study in APOE4-TR mice: Aβ40 in forebrain (MSD assay); assay type: in vivo; conditions: for Mini AUEC (brain Aβ40): 4 h and 24 h; for Aβ40 reduction, range over doses: 3, 10 and 30 μmol/kg
Method: Male and female transgenic homozygous APOE4-TR (B6. 129P2-Apoe^tm3(APOE*4)Mae N8, Taconic, Model 001549, 3-5 months old, n=48) were obtained from Taconic.
Compound 1 was formulated as a suspension. Vehicle or compound was given by oral administration in a volume of 10 ml/kg once. Vehicle: 0.1% Tween80 in 0.5% Methylcellulose in water. […]
(§1) Frozen mouse forebrains were weighed and homogenized in 9 volumes (w/v) of ice-cold TBS-Complete (20 mM Tris-HCl pH 7.4, 137 mM NaCl, 1× Complete [Protease Inhibitor Cocktail Tablets: 1 836 145, Roche Diagnostics GmbH, Penzberg, Germany]) by sonication (90% duty cycle, output control 5, 40-55 pulses, [Sonifier 450, Branson]). After homogenization several 50 μl aliquots were prepared for analysis and were stored at −80° C.
Endogenous Aβ40 in mice was determined with the Meso Scale Discovery (MSD) 96-well MULTI-ARRAY human/rodent (4G8) Aβ40 Ultrasensitive Assay (#K110FTE-3, Meso Scale Discovery, Gaithersburg, USA). The assay was performed according to the manufacturer's instructions except for the calibration curve and the sample preparations. TritonX-100 (TX-100) soluble Aβ40 was extracted from forebrain with 1% TX-100 using a 50 μl aliquot of each 1:10 forebrain homogenate, mixed with 50 μl 2% TX-100 in TBS complete (20 mM Tris-HCl pH 7.4, 137 mM NaCl, 1× Complete [Protease Inhibitor Cocktail Tablets: 1 836 145, Roche Diagnostics GmbH, Penzberg Germany]) to reach a final concentration of 1% TX-100 and a 1:20 forebrain dilution. The samples were incubated for 15 min on ice and vortexed every 5 min. The samples were ultra-centrifuged (100000×g, 4° C., 15 min) and 50 μl of the clear supernatants were transferred to fresh tubes. For the Aβ40 assay the supernatants were further diluted 1:5 in 3% Blocker A solution (from kit) to a final forebrain dilution of 1:100 and applied to the plate.
(§2) The calibration curve was prepared in a corresponding dilution of 1% Blocker A solution spiked with synthetic Aβ1-40 peptide (1.56-100 pg/ml) except for non-transgenic mouse brain samples: In this case, the calibration curve was prepared in a correspondingly diluted APP knockout mouse forebrain spiked with synthetic Aβ1-40 peptide (1.56-100 pg/ml). For all samples and standards 25 μl were applied per well. For each determination duplicate wells were done. The mean values from the duplicate wells were used for calculations.

[2] = 3-month dose-ranging study: plasma pharmacokinetics on Day 91; assay type: in vivo; conditions: human, oral, read-out: expected plasma Cmax,ss
Aβ40 = assay: Chronic treatment of APP23 mice: Triton TX-100 soluble Aβ40 in brain; assay type: in vivo, mouse
Method: as §1
Human Aβ40 and 42 in mice was determined with the Meso Scale Discovery (MSD) 96-well MULTI-ARRAY human/rodent (6E10) Aβ40/42 Assay (Meso Scale Discovery, Rockville, Md., USA) as described in [RD-2010-00284]. The assay was done according to the manufacturer's instructions except for the calibration curve and the sample preparations. TritonX-100 (TX-100) soluble Aβ40 and 42 was extracted from forebrain with 1% TX-100 using a 50 μl aliquot of each 1:10 forebrain homogenate, mixed with 50 μl 2% TX-100 in TBS complete (20 mM Tris-HCl pH 7.4, 137 mM NaCl, 1× Complete [Protease Inhibitor Cocktail Tablets: 1 836 145, Roche Diagnostics GmbH, Penzberg Germany]) to reach a final concentration of 1% TX-100 and a 1:20 forebrain dilution. The samples were incubated for 15 min on ice and vortexed every 5 min. The samples were ultra-centrifuged (100000×g, 4° C., 15 min) and 50 μl of the clear supernatants were transferred to fresh tubes. The supernatants were further diluted 1:5 in 3% Blocker A solution (from kit) to a final forebrain dilution of 1:100 and applied to the plate.
as §2, with “calculations. The relative units for samples and standards were imported into SOFTmax PRO 4.0 for calculation of standard curves and quantification of samples.” for “calculations.”
Brain homogenates were extracted with 1% Triton X-100 in buffer and the resulting supernatant was considered to represent soluble forms of APP metabolites. In addition to Aβ40 and 42, we determined the N-terminal APP fragments sAPPα (direct cleavage product of α-secretase) and sAPPβ (Swe) (direct product of BACE1 cleavage). […] Since no change in the APP expression and Aβ generation is known to happen during this age, it is assumed that the increased values in the vehicle group (18-20 mo old) arise from “leakage” out of the Aβ deposits (which increase several fold, see below).

[3] = Off-target binding or activity

C[C@@]1(c2nc(NC(=O)c3ncc(C(F)(F)F)cc3Cl)ccc2F)CO[C@@](C)(C(F)(F)F)C(N)=N1 [Compound 1, N-(6-((3R,6R)-5-amino-3,6-dimethyl-6-(trifluoromethyl)-3,6-dihydro-2H-1,4-oxazin-3-yl)-5-fluoropyridin-2-yl)-3-chloro-5-(trifluoromethyl)picolinamide]
% reduction vs vehicle (brain Aβ40) ([1]; 3 μmol/kg acute, 4 h): 43%
Average Aβ40 brain ± SD ([1]; 3 μmol/kg acute, 4 h): 0.114 ± 0.024 pmol/g
Mini AUEC (brain Aβ40) ([1]; 3 μmol/kg acute): 32%
% reduction vs vehicle (brain Aβ40) ([1]; 3 μmol/kg acute, 24 h): 20%
Average Aβ40 brain ± SD ([1]; 3 μmol/kg acute, 24 h): 0.160 ± 0.033 pmol/g
% reduction vs vehicle (brain Aβ40) ([1]; 10 μmol/kg acute, 4 h): 63%
Average Aβ40 brain ± SD ([1]; 10 μmol/kg acute, 4 h): 0.074 ± 0.014 pmol/g
Mini AUEC (brain Aβ40) ([1]; 10 μmol/kg acute): 47%
% reduction vs vehicle (brain Aβ40) ([1]; 10 μmol/kg acute, 24 h): 31%
Average Aβ40 brain ± SD ([1]; 10 μmol/kg acute, 24 h): 0.139 ± 0.041 pmol/g
% reduction vs vehicle (brain Aβ40) ([1]; 30 μmol/kg acute, 4 h): 77%
Average Aβ40 brain ± SD ([1]; 30 μmol/kg acute, 4 h): 0.046 ± 0.006 pmol/g
Mini AUEC (brain Aβ40) ([1]; 30 μmol/kg acute): 72%
% reduction vs vehicle (brain Aβ40) ([1]; 30 μmol/kg acute, 24 h): 66%
Average Aβ40 brain ± SD ([1]; 30 μmol/kg acute, 24 h): 0.068 ± 0.021 pmol/g
Aβ40 reduction, range over doses ([1]; 4 h): 43-77%
Aβ40 reduction, range over doses ([1]; 24 h): 20-66%
Emax ([1]; Mus musculus, 30 μmol/kg acute, read-out: maximal effect on Aβ reduction in the brain): > 70%
Cmax ([2]; once daily dose of 15 mg): 70 to 170 ng/mL
Cmax ([2]; once daily dose of 50 mg): 200 to 500 ng/mL
Aβ40 change vs vehicle (TX-100 soluble) (Aβ40; 0.03 g/kg vs vehicle): −4.6%
Aβ40 change vs vehicle (TX-100 soluble) (Aβ40; 0.3 g/kg vs vehicle): −43.7%
treatment effects on soluble Aβ species from brain tissue and Aβ40 in CSF (Aβ40; high Compound 1 dose): −43.7 to −77%
treatment effects on soluble Aβ species from brain tissue and Aβ40 in CSF (Aβ40; low Compound 1 dose): −4.6 to −20%
off-target binding or activity [3]: no relevant off-target binding or activity
